Measurements published in the NIST ThermoML archive (doi:10.1016/j.jct.2010.04.018).
Numbers after ± are expanded uncertainties.

Assay: cn = amount concentration of the nth substance listed, in mol/dm3
Conditions: 101 kPa, Liquid; for speed of sound: Sing-around technique in a fixed-path interferometer; for mass density: Vibrating tube method

Oc1ccccc1O [1,2-benzenediol] + O
Conditions	mass density, 283.15 K [kg/m3]	mass density, 293.15 K [kg/m3]	mass density, 298.15 K [kg/m3]	mass density, 303.15 K [kg/m3]	mass density, 313.15 K [kg/m3]	speed of sound, 283.15 K [m/s]	speed of sound, 293.15 K [m/s]	speed of sound, 298.15 K [m/s]	speed of sound, 303.15 K [m/s]	speed of sound, 313.15 K [m/s]
c1 = 0.0354	1000.62 ± 0.041	999.093 ± 0.041	997.92 ± 0.041	996.509 ± 0.042	993.058 ± 0.042	1449.9 ± 1.2	1484.1 ± 1.2	1498.2 ± 1.2	1510.5 ± 1.2	1529.9 ± 1.2
c1 = 0.1697	1003.9 ± 0.043	1002.24 ± 0.042	1001.01 ± 0.041	999.543 ± 0.041	995.992 ± 0.041	1457.9 ± 1.2	1490.6 ± 1.2	1504 ± 1.2	1515.7 ± 1.2	1534.1 ± 1.2
c1 = 0.346	1008.13 ± 0.045	1006.3 ± 0.043	1004.99 ± 0.043	1003.46 ± 0.042	999.774 ± 0.041	1467.9 ± 1.2	1498.7 ± 1.2	1511.4 ± 1.2	1522.2 ± 1.2	1539.2 ± 1.2
c1 = 0.4721	1011.09 ± 0.046	1009.14 ± 0.048	1007.78 ± 0.046	1006.19 ± 0.046	1002.41 ± 0.042	1474.5 ± 1.2	1504.1 ± 1.2	1516.2 ± 1.2	1526.6 ± 1.2	1542.6 ± 1.2
c1 = 0.5008	1011.78 ± 0.047	1009.79 ± 0.043	1008.42 ± 0.043	1006.82 ± 0.042	1003.02 ± 0.042	1476.5 ± 1.2	1505.4 ± 1.2	1517.3 ± 1.2	1527.5 ± 1.2	1543.4 ± 1.2
c1 = 0.6589	1015.4 ± 0.048	1013.26 ± 0.047	1011.82 ± 0.046	1010.15 ± 0.045	1006.23 ± 0.044	1484 ± 1.2	1511.8 ± 1.2	1523 ± 1.2	1532.7 ± 1.2	1547.3 ± 1.2
c1 = 0.7524	1017.53 ± 0.049	1015.29 ± 0.047	1013.81 ± 0.047	1012.11 ± 0.046	1008.12 ± 0.045	1488.5 ± 1.2	1515.4 ± 1.2	1526.3 ± 1.2	1535.5 ± 1.2	1549.5 ± 1.2

Oc1cccc(O)c1 [1,3-benzenediol] + O
Conditions	mass density, 283.15 K [kg/m3]	mass density, 293.15 K [kg/m3]	mass density, 298.15 K [kg/m3]	mass density, 303.15 K [kg/m3]	mass density, 313.15 K [kg/m3]	speed of sound, 283.15 K [m/s]	speed of sound, 293.15 K [m/s]	speed of sound, 298.15 K [m/s]	speed of sound, 303.15 K [m/s]	speed of sound, 313.15 K [m/s]
c1 = 0.0479	1000.93 ± 0.04	999.387 ± 0.041	998.206 ± 0.041	996.776 ± 0.041	993.338 ± 0.041	1449.5 ± 1.2	1483.7 ± 1.2	1497.8 ± 1.2	1510 ± 1.2	1529.5 ± 1.2
c1 = 0.101	1002.08 ± 0.041	1000.51 ± 0.04	999.325 ± 0.04	997.875 ± 0.04	994.393 ± 0.041	1451.5 ± 1.2	1485.2 ± 1.2	1499.1 ± 1.2	1511.2 ± 1.2	1530.3 ± 1.2
c1 = 0.1786	1003.79 ± 0.042	1002.17 ± 0.041	1000.95 ± 0.04	999.476 ± 0.04	995.941 ± 0.041	1454.3 ± 1.2	1487.3 ± 1.2	1500.9 ± 1.2	1512.8 ± 1.2	1531.4 ± 1.2
c1 = 0.3402	1007.38 ± 0.043	1005.58 ± 0.042	1004.28 ± 0.042	1002.77 ± 0.041	999.12 ± 0.04	1459.9 ± 1.2	1491.6 ± 1.2	1504.7 ± 1.2	1515.9 ± 1.2	1533.7 ± 1.2
c1 = 0.4522	1009.8 ± 0.044	1007.9 ± 0.043	1006.56 ± 0.043	1005 ± 0.042	1001.29 ± 0.041	1463.5 ± 1.2	1494.5 ± 1.2	1507.1 ± 1.2	1518 ± 1.2	1535.2 ± 1.2
c1 = 0.5654	1012.22 ± 0.046	1010.22 ± 0.045	1008.84 ± 0.044	1007.25 ± 0.043	1003.46 ± 0.042	1467.2 ± 1.2	1497.3 ± 1.2	1509.6 ± 1.2	1520.1 ± 1.2	1536.6 ± 1.2
c1 = 0.7623	1016.36 ± 0.048	1014.19 ± 0.047	1012.74 ± 0.046	1011.08 ± 0.045	1007.17 ± 0.044	1473.5 ± 1.2	1502 ± 1.2	1513.7 ± 1.2	1523.7 ± 1.2	1539 ± 1.2

Oc1ccc(O)cc1 [1,4-benzenediol] + O
Conditions	mass density, 283.15 K [kg/m3]	mass density, 293.15 K [kg/m3]	mass density, 298.15 K [kg/m3]	mass density, 303.15 K [kg/m3]	mass density, 313.15 K [kg/m3]	speed of sound, 283.15 K [m/s]	speed of sound, 293.15 K [m/s]	speed of sound, 298.15 K [m/s]	speed of sound, 303.15 K [m/s]	speed of sound, 313.15 K [m/s]
c1 = 0.011	1000 ± 0.04	998.494 ± 0.045	997.334 ± 0.042	995.934 ± 0.044	992.505 ± 0.042	1448.2 ± 1.2	1482.6 ± 1.2	1496.9 ± 1.2	1509.3 ± 1.2	1529 ± 1.2
c1 = 0.0342	1000.53 ± 0.04	999.001 ± 0.04	997.84 ± 0.04	996.428 ± 0.041	992.992 ± 0.042	1449.2 ± 1.2	1483.3 ± 1.2	1497.5 ± 1.2	1509.9 ± 1.2	1529.4 ± 1.2
c1 = 0.0554	1001.02 ± 0.041	999.463 ± 0.04	998.3 ± 0.04	996.878 ± 0.041	993.436 ± 0.041	1450 ± 1.2	1483.9 ± 1.2	1498.1 ± 1.2	1510.3 ± 1.2	1529.8 ± 1.2
c1 = 0.1035	1002.11 ± 0.041	1000.5 ± 0.04	999.338 ± 0.04	997.892 ± 0.04	994.437 ± 0.041	1451.9 ± 1.2	1485.2 ± 1.2	1499.3 ± 1.2	1511.5 ± 1.2	1530.6 ± 1.2
c1 = 0.201	1004.28 ± 0.042	1002.58 ± 0.041	1001.41 ± 0.04	999.925 ± 0.04	996.443 ± 0.041	1455.5 ± 1.2	1487.6 ± 1.2	1501.8 ± 1.2	1513.7 ± 1.2	1532.2 ± 1.2
c1 = 0.2996	1006.44 ± 0.043	1004.65 ± 0.042	1003.48 ± 0.041	1001.95 ± 0.041	998.439 ± 0.04	1458.9 ± 1.2	1489.8 ± 1.2	1504.1 ± 1.2	1515.7 ± 1.2	1533.7 ± 1.2
c1 = 0.4022	1008.64 ± 0.044	1006.75 ± 0.042	1005.59 ± 0.042	1004.02 ± 0.041	1000.49 ± 0.04	1462.2 ± 1.2	1492 ± 1.2	1506.4 ± 1.2	1517.8 ± 1.2	1535.2 ± 1.2

O [water] + Oc1ccccc1O
c2 = 0
Conditions	mass density [kg/m3]	speed of sound [m/s]
283.15 K	999.749 ± 0.041	–
293.15 K	998.252 ± 0.044	–
313.15 K	992.273 ± 0.042	1528.8 ± 1.2
